Experimental findings from US7365080B2, “Pharmaceutical compositions comprising thieno[2,3-c]pyridine derivatives and use thereof” (Rimonyx Pharmaceuticals Ltd., priority 2003, dated 2008) are described below.

By inhibition is commonly meant how much of the control response was suppressed. The low end stands for a weak effect, the high end for a strong effect.

In one test the test system is Mice. Nature of the test: Delayed-type hypersensitivity (oxazolone, ear-swelling test). It counts as in vivo, mouse. The settings on record: 3 mg/kg iv, 24 hours after challenge. As to the method:
Mice (15 animals per group) were sensitized by topical application of a 2% oxazolone (4-ethoxymethylene-2-phenyl-2-oxazoline-5-one; Sigma, St Louis, Mo.) solution in acetone/olive oil (4:1 vol/vol) to shaved abdomen (50 μl) and to each paw (5 μl) (Lange-Asschenfeldt B. et al., Blood 99:538-545, 2002). Five days after sensitization, right ears were challenged by topical application of 10 μl of a 1% oxazolone solution, whereas left ears were treated with vehicle alone. Compounds were administered 1 hr prior to challenge. The extent of inflammation was measured 24 hours after challenge, using the mouse ear-swelling test. The unpaired Student t test was used for statistical analyses.

Test [1] concerns BALB/c mice. Nature of the test: Thioglycollate-induced leukocyte and neutrophil infiltration into mouse peritoneum. It counts as in vivo. The protocol: The ability of compounds of the present invention to reduce leukocyte migration to sites of acute inflammation was evaluated in BALB/c mice using a thioglycolate-induced model of peritonitis. In this animal model, interactions of L- and P-selectin with HS-GAGs have been implicated in neutrophil infiltration (Nelson, R. M., 82:3253-3258, 1993; Xie, X. et al., J. Biol. Chem., 275:34818-34825, 2000).
BALB/c mice (6 weeks old, ˜20 g in weight, 15 mice/group) received intraperitoneal injection of an inhibitor compound in 0.2 ml DMSO/Tween/sterile saline 1 hour before administration of thioglycollate (Sigma). Control groups received vehicle and sham controls received no thioglycollate. Mice were injected intraperitoneally with 1 ml of 3% thioglycollate broth (Xie, X. et al., J. Biol. Chem., 275, 34818-34825, 2000). Mice were sacrificed after 3 hours, and the peritoneal cavities were ravaged with […] of ice-cold saline containing 2 mM EDTA to prevent clotting. After red blood cell lysis, leukocytes were counted in a hemocytometer. Neutrophils were counted after staining with Türck. Data was expressed as mean±SEM, and statistical analysis was performed by Student t test. A value of P<0.05 was taken to denote statistical significance.

Test [2] relates to BALB/c mice. The test is described as follows: Carrageenan-induced paw edema. It counts as in vivo, mouse. The note with it: i.p. administration 60 min before carrageenan. The protocol: Acute edema was induced in the left hind paw of Balb/c mice by injecting 0.02 ml of freshly prepared solution of 2% carrageenan after 60 min of test compound administration (Torres, S. R. et al., European Journal of Pharmacology 408: 199-211, 2000). The right paw received 0.02 ml of saline, which served as a control. Carrageenan was injected under the plantar region of right hind paw and the paw thickness was measured at 2, 4 and 24 hours after carrageenan challenge using a Mitutoyo engineer's micrometer expressed as the difference between right and left pad as mean±SEM. […] A dose response curve for Compound no.

Another test concerns the target T1, L-Selectin (Homo sapiens, UniProt P14151).
T1 construct: purchased Research and Development Systems 728-LS
T1 sequence (P14151 39-332 limits assumed): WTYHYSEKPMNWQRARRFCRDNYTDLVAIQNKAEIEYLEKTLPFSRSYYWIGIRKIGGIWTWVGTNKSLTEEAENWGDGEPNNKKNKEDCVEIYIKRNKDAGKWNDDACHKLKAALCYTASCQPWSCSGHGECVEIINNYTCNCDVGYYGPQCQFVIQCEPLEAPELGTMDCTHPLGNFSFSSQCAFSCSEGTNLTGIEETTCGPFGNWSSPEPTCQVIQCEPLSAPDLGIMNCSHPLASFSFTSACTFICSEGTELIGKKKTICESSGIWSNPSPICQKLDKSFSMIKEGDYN
The test is described as follows: ELISA: inhibition of L-selectin/IgG binding to immobilized heparin (Heparin-BSA). The settings on record: L-Selectin binding to heparin; 50 μM. As to the method: The inhibitory effect of the compounds of the present invention can be evaluated by several methods in vitro. One assay for measuring GAG-ECAM binding, exemplified herein below, detects the binding of L selectin/IgG to immobilized heparin. Another assay utilizes immobilized L-selectin, or L-selectin fused to protein domains other than IgG. The amount of bound L-selectin is determined by an ELISA assay using, for example, a monoclonal antibody raised against L-selectin, which is conjugated to horseradish peroxidase. […] The Dregg-55 antibody was also shown to inhibit L-selectin-dependent adhesion in vitro, neutrophil accumulation in vitro and inflammation in vivo (Co M. S. et al, Immunotechnology 493: 253-266, 1999).
An in vitro assay was used to assess the ability of test compounds according to formula I to inhibit the interactions of L-selectin with HS-GAGs. The assay was suitable for determining the concentration required for 50% inhibition (IC-50) for each specific compound. In the assay, the GAG used was heparin. Thus, porcine intestinal mucosa heparin conjugated to Bovine Serum Albumin (Heparin-BSA; Sigma Cat. No. H0403) at […] in Phosphate Buffered Saline (PBS; pH 6.5) was added to a 96 well polystyrene ELISA plate (NUNC Cat. No. 442404; 0.1 ml per well) and incubated Over Night (ON) at 4° C. Following the incubation, the plate was washed thoroughly, by immersion, with de-ionized water and PBS (pH 6.5). The ELISA plate was then blocked with BSA (ICN Cat. No.160069, 3%, 200 μl per well) for 1 hour at Room Temperature (RT). Following blocking, the plate was washed with de-ionized water, and then with PBS (pH 6.5) containing Tween 20 (Sigma Cat. No. P-1379, 0.05%). Compounds were synthesized or purchased from ChemDiv Labs (San Diego, Calif.), dissolved in DMSO, diluted in PBS and added to the wells at various concentrations in the range of 0.01 to 300 μM. Recombinant Human L-Selectin/IgG (Research and Development Systems Cat. No.728-LS) dissolved in PBS supplemented with BSA (0.1%) and calcium chloride (1 mM) was added to the ELISA plate (100 μl per well) and incubated for 60 minutes at RT with shaking. Following incubation, the plate was washed with de-ionized water and three times with PBS (pH 6.5) containing Tween 20. Anti-Human IgG Peroxidase Conjugate (1:5000; Sigma Product No. A8667) diluted in PBS supplemented with BSA (0.1%) and calcium chloride (1 mM) was added to the ELISA plate (100 μl per well) and incubated for 30 minutes at RT with shaking. The plate was then washed with de-ionized water and three times with PBS (pH 6.5) containing Tween 20. The peroxidase substrate cromogen, TMB (Dako Cat. No. S1599) was added (100 μl per well) to the ELISA plate and incubated at room temperature. After 15 minutes ELISA Stop Solution (hydrochloric acid 1N, sulfuric acid 3N) was added (200 μl per well) to stop the peroxidase catalyzed colorimetric reaction. The Optical Density (OD) of the samples was measured at 450 nm using an ELISA plate reader (Dynatech MR5000). Data were analyzed with Graphpad Prism software and IC-50 values were established. The P-selectin assay was carried out in a similar fashion, except that Recombinant Human P-Selectin/IgG (Research and Development Systems Cat.No.137-PS) was used.

Test [3] has as its system immobilized heparin / L-selectin/IgG. Nature of the test: Assay 1: direct interaction with heparin, pre-incubation versus co-incubation with L-selectin. In kind it is binding. The settings on record: compound 0.1-200 μM, 90 min, washed before L-selectin/IgG. The protocol: Inhibitor Compounds at final concentration 0.1-200 μM were incubated in the ELISA plate for 90 min, and then washed with incubation buffer. After washing, L-selectin/IgG was added to the wells pre-incubated with compounds. At the same time, in separate control wells, L-selectin was co-incubated with inhibitor Compounds for 90 min. Following the incubation, L-selectin bound to the plate was quantified by antibody conjugated to Horse Radish Peroxidase and OD measurement as performed as described in Example 5.

In the case of `CCCCN(CC)S(=O)(=O)c1ccc(C(=O)Nc2sc3c(c2-c2nc4ccccc4s2)CCN(CC)C3)cc1` [Compound 5, 2-[[4-[(ethylbutylamino)sulfonyl]benzoyl]amino]-3-(benzothiazol-2-yl)-6-ethyl-4,5,6,7-tetrahydrothieno[2,3-c]pyridine], in the test on Mice, the “DTH, % of control value” is on record as 56 % of control value. The “reduction of leukocyte infiltration” value in the test with BALB/c mice [1] (2 mg/kg intraperitoneal) is 25%; with BALB/c mice [1] (10 mg/kg intraperitoneal) it was 50%; in the test with BALB/c mice [1] (50 mg/kg intraperitoneal), 75%. Besides, in the test with BALB/c mice [1] (FIG. 4, 2, 10, 50 mg/kg), the “neutrophil infiltration in mouse peritonitis (in words)” value is given as “dose-dependent inhibition”. Also, the “leukocyte migration into the peritoneal cavity (in words)” value with BALB/c mice [1] (intraperitoneal, 1 hour before thioglycollate, 3 hours) is on record as “inhibited efficiently”. Further, in the test on BALB/c mice [2], the “carrageenan induced paw edema (in words)” value is on record as “anti-inflammatory properties”. Besides, at L-Selectin, 50 µM produced 62% inhibition. Besides, in test [3], the “level of inhibition of L-selectin binding to heparin, pre-incubation versus co-incubation” value is “same level of inhibition”.
